Test results: EP0240907A2, “Use of trans-4-[(2-amino-3,5-dibromobenzyl)amino]cyclohexanol” (priority 1986, dated 1987)
Where a name gives a salt, the structure may show the parent alone.

Experiments:
[1] = system: tracheobronchiales oder sinubronchiales Syndrom; details: inhalate in 1 %iger Emser Sole; patients who also had rhinitis needed additional cold remedies; cited from earlier work
physchem = assay type: physicochemical; details: water
Procedure: Bei Anwendung von Ambroxol muß die Dosis 50 bis 100 mg betragen. Berücksichtigt man, daß Ambroxol nur in 1 %iger Lösung stabil ist und alle konzentrierteren Lösungen bei […] Temperaturen zur […], so zeigt dies, […] in der Praxis in einer Dosis von 5 bis 10 ml zur Anwendung kommen müßte, die völlig unrealistisch ist.

Kaninchenauge = details: 1%-ige Ambroxol-HCL-Lösung; cited from earlier work

What does the source list for Nc1c(Br)cc(Br)cc1CN[C@H]1CC[C@H](O)CC1 [Ambroxol, trans-4-[(2-Amino-3,5-dibrom-benzyl)-amino]cyclohexanol]?
Wirksamkeit bei Patienten mit tracheobronchialem oder sinubronchialem Syndrom [1]: wirksam; solubility (physchem): ≤ 10000 µg/mL

With Nc1c(Br)cc(Br)cc1CN[C@H]1CC[C@H](O)CC1 [Ambroxol-HCL] as the molecule, how does the “Reizung des Kaninchenauges” value (Kaninchenauge) read?
The value was “keine Reizung”.
